Measured values from the NIST ThermoML archive (doi:10.1021/acs.jced.5b01075).
Several values for one entry are separate records, joined by “and”; a condition that tells them apart may be missing. Equal values may be shown once.

Conditions: 101.33 kPa, Liquid; for speed of sound: Sing-around technique in a fixed-path interferometer; for mass density: Vibrating tube method

Cc1ccccc1 [toluene]
Conditions | mass density | speed of sound [m/s]
293.15 K | 866.816 kg/m3 and 866.8 kg/m3 | 1326.5
303.15 K | 857.497 kg/m3 and 857.5 kg/m3 | 1283.5
313.15 K | 848.114 kg/m3 and 848.1 kg/m3 | 1241
323.15 K | 838.661 kg/m3 and 838.7 kg/m3 | 1198.9
333.15 K | 829.124 kg/m3 and 829.1 kg/m3 | 1157.5
343.15 K | 819.5 kg/m3 | –
353.15 K | 809.7 kg/m3 | –
